Experimental data as given in patent US8796201B2 (The Board of Trustees of the Leland Stanford Junior …, priority 2002, dated 2014).
Entries after “also recorded” stand apart in the source; their conditions may differ. One block for each molecule: values may come before it. Where no end group is shown, it is not given here.

Columns and labels:
[1] = In vivo perfusion of peptides through rat jejunum; details: 15-20 cm jejunum segment, residence time 20 min
Procedure: FIG. 5. In vivo brush border membrane digestion of peptides.
In Vivo Endopeptidase Activity. An adult (female or male) rat was anesthetized and maintained at 36-37° C. during the entire surgical procedure. The peritoneal cavity was opened, and a small incision was made at the beginning and the end of a 15-20 cm jejunum segment. Polyethylene catheters were inserted and secured into the two ends. The input catheter was connected with a pump-driven syringe filled with a solution. The jejunum segment was perfused initially with PBS buffer to remove any residual debris at a flow rate of 0.4 ml/min. Purified peptide solutions (peptide concentration ranges from 25-100 μM) were then perfused at 0.4 ml/min through the jejunum segment with a 10-40 min residence time. In the case of a co-perfusion, the input catheter is connected with two simultaneous syringes, one with a peptide solution and the other with the prolyl endopeptidase solution (concentration ranges from 50-500 μU/μl). Fluid from the output catheter was collected into small centrifuge tubes in dry ice for subsequent analysis. The collected digestive products were analyzed by HPLC on a C18 column.

[2] = test system: rat brush border membrane (BBM) peptidases; type: in vitro ADME
Procedure: To investigate the digestion of gluten, liquid chromatography coupled mass spectroscopy analysis (LC-MS-MS) was utilized to investigate the pathways and associated kinetics of hydrolysis of immunodominant gliadin peptides treated with rat BBM preparations. Because the rodent is an excellent small animal model for human intestinal structure and function, rat BBM was chosen as a suitable model system for these studies.
BBM fractions were prepared from rat small intestinal mucosa as described in Ahnen et al. (1982) J. Biol. Chem. 257, 12129-35. […] No proline aminopeptidase (EC 3.4.11.5) or prolyl endopeptidase activity (PEP, EC 3.4.21.26) activity was detectable (<5 μU/μg). Alkaline phosphatase and sucrase were used as control BBM enzymes with activities of 66 μU/μg and 350 μU/μg, respectively.
BBM fractions were partially purified from the small intestinal mucosa of adult female rats maintained on an ad libitum diet of wheat-based standard rodent chow. Total protein content was determined by a modified method of Lowry with BSA as a standard. Alkaline phosphatase activity was determined with nitrophenyl phosphate. Sucrase activity was measured using a coupled glucose assay. […] PEP activity was determined continuously with 0.4 mM Z-Gly-Pro-pNA in PBS:H2O:dioxane (8:1.2:0.8) at 30° C. One unit is the consumption of 1 μmol substrate per minute.
Proteolysis with the BBM preparation was investigated using the peptide (SEQ ID NO:1) […], a product of chymotryptic digestion of α-9 gliadin (Arentz-Hansen et al. (2000) J. Exp. Med. 191, 603-12). […] It was subjected to BBM digestion, followed by LC-MS-MS analysis. A standard 50 μl digestion mixture contained 100 μM of synthetic peptide, 10 μM tryptophan and Cbz-tryptophan as internal standards, and resuspended BBM preparations with a final protein content of 27 ng/μl and exogenous proteins, as indicated, in phosphate buffered saline. After incubation at 37° C. for the indicated time, the enzymes were inactivated by heating to 95° C. for 3 minutes. The reaction mixtures were analyzed by LC-MS (SpectraSystem, ThermoFinnigan) using a C18 reversed phase column (Vydac 218TP5215, 2.1×150 mm) with water:acetonitrile:formic acid (0.1%):trifluoroacetic acid (0.025%) as the mobile phase (flow: 0.2 ml/min) and a gradient of 10% acetonitrile for 3 minutes, 10-20% for 3 minutes, 20-25% for 21 minutes followed by a 95% wash. Peptide fragments in the mass range of m/z=300-2000 were detected by electrospray ionization mass spectroscopy using a LCQ ion trap and their identities were confirmed by MSMS fragmentation patterns.
BBM fractions were prepared from rat small intestinal mucosa.

[3] = test system: Lactobacillus helveticus PEP (Genbank ID#321529)
[4] = test system: FM PEP (recombinant prolyl endopeptidase from Flavobacterium meningosepticum); experiment: 0.1 μM FM PEP in PBS buffer; details: 37° C.
[5] = test system: SC PEP (recombinant prolyl endopeptidase from Sphingomonas capsulata); experiment: 0.1 μM SC PEP in PBS buffer; details: 37° C., up to t=5 min
[6] = test system: pepsin or any pancreatic enzyme; experiment: pepsin or any pancreatic enzyme
[7] = test system: prolyl endopeptidase (PEP, specific activity 28 μU/pg) from Flavobacterium meningosepticum (US Biological, MA); experiment: 27 ng/μl brush border membranes with exogenous prolyl endopeptidase from Flavobacterium meningosepticum; details: rat, up to one hour
[8] = test system: MX PEP (recombinant prolyl endopeptidase from Myxococcus xanthus); experiment: 0.1 μM MX PEP in PBS buffer; details: 37° C.
PQPQLPYPQPQLP = experiment: Acceleration of brush border mediated digestion by exogenous endoproteases; type: biochemical, wheat; details: 27 ng/μl BBM, one hour
Procedure: FIG. 3. Dose dependent acceleration of brush border mediated digestion by exogenous endoproteases. […] This peptide was digested with 27 ng/μl brush border membranes, either alone, with increasing amounts of exogenous prolyl endopeptidase (PEP, specific activity 28 μU/pg) from Flavobacterium meningosepticum (US Biological, MA), or with additional elastase (E-1250, Sigma, Mo.), bromelain (B-5144, Sigma, Mo.) or papain (P-5306, Sigma, Mo.) (12). After one hour, the fraction of remaining (SEQ ID NO:4) […] (compared to the initial amount at t=0 min) was analyzed and quantified as in FIG. 1.
Alerted by the high proline content as a hallmark of most immunogenic gliadin peptides, a proline-specific endopeptidase was tested for the generation of new, free peptide termini. A literature search on available proteases led to the identification of prolyl endopeptidase (PEP) from Flavobacterium meningosepticum, which is specific for the C-terminal cleavage of prolines and readily available from recombinant sources (Yoshimoto et al. (1991) J. Biochem. 110, 873-8). The stable (SEQ ID NO:4) […] intermediate was digested with BBM in the presence of exogenous PEP. […] As little as 3.5 pg PEP/27 ng BBM protein was sufficient to double the extent of proteolysis of this gliadin fragment compared to incubation with BBM alone. In comparison, other commonly used proteases like papain, bromelain or porcine elastase were much less efficient, requiring 30-fold (papain) or 3000-fold (bromelain, elastase) higher amounts of enzyme compared to PEP to give similar results. Their proteolysis was restricted to the cleavage of the Gln^4-Leu^5 and/or Gln^11-Leu^12 bonds.
A similar preferential cleavage was found for (SEQ ID NO:1) QLQPFP^↓QPQLPY. This is in agreement with the preference of this prolyl endopeptidase for a second proline in the S2′ position (Bordusa and Jakubke (1998) Bioorg. Med. Chem. 6, 1775-80). Based on this P^↓XP motif and on the present data, up to 16 new, major cleavage sites can be predicted in the α2-gliadin sequence, a major source of immunodominant epitopes identified thus far upon PEP treatment. All of them are located in the critical N-terminal part. The internal cleavage by PEP can be expected to generate additional (otherwise inaccessible) substrates for DPP IV and DCP thereby complementing the natural assimilation process of gliadins by the BBM. Thus, the specificity of prolyl endopeptidase is ideally suited for detoxification of persistent immunoactive gliadin peptides in Celiac Sprue.

α2-gliadin = experiment: EPB2 activation and α2-gliadin digestion under acidic conditions; type: biochemical, wheat
Text: The gene for an endoprotease (EPB2; […] accession number U19384, nt 94-1963) from barley (Hordeum vulgare subsp. vulgare) was subcloned into a pET28b (Invitrogen) vector using BamH1 and EcoR1 insertion sites; the resulting plasmid was designated pMTB1. […] The proprotein was solubilized from the inclusion bodies using 7 M urea. The solubilized protein was purified on a Ni-NTA column. Auto-activation of proEPB2 to its mature, active form was achieved by addition of citrate-phosphate buffer, pH 3 (prepared by mixing 0.1 M sodium citrate and 0.2 M sodium phosphate). Under such acidic conditions, proEPB2 converts rapidly into a mature form with a molecular weight of 30 kDa (FIG. 2). By 72 hours, mature EPB2 undergoes autolysis. N-terminal sequencing yielded an N-terminal sequence beginning with VSDLP.
The pH optimum of proEPB2 activation and α2-gliadin digestion is 2.4-3.5, which can therefore provide a treatment for Celiac Sprue consisting of oral administration of proEPB2.

PQPQLPYPQPQLPY = experiment: Hydrolysis of gliadin peptide by pancreatic proteases; type: biochemical, wheat; details: elastase at 100 ng/μl (non-physiological)
Text: Because BBM exopeptidases are restricted to N- or C-terminal processing, it was investigated if generation of additional free peptide ends by pancreatic enzymes would accelerate digestion.

[9] = test system: pepsin (1:100 w/w ratio), trypsin (1:100), chymotrypsin (1:100), elastase (1:500) and carboxypeptidase (1:100); experiment: composite gastric/pancreatic enzymatic digestion
chymotrypsin = experiment: gastric and pancreatic proteases, chymotrypsin playing a major role
[10] = kidney or brush border membranes

Molecule: QLQPFPQPQLPY
fraction proteolyzed in the perfusion experiment [1]: > 90% | apparent half life of disappearance of parent peptide [2, 10]: 35 min

clearance of digestive intermediates [2]: cleared completely within one hour | apparent half life of disappearance of parent peptide [2, 10]: 10 min
Molecule: RRLIEDNEYTARG

cleaved bond [3]: P-I
Molecule: RPKHPIKHQ

half-life of disappearance [2, 10]: ~60 min
Molecule: WQIPEQSR

cleaved bond [3]: P-V and P-I
Molecule: YQEPVLGPVRGPFPIIV

cleaved bond ([4]; up to t=5 min): P-Q, major, t=5 min | cleaved bond ([8]; up to t=5 min): P-Y, major, t=5 min
Molecule: PQPQLPYPQPQLP
cleaved bond [5]: P-Q, t=5 min; also recorded: P-Y, t=5 min | not cleaved [6]: resistant to proteolysis by pepsin or any pancreatic enzyme | cleaved bond [7]: Pro8-Gln9, major; also recorded: Pro6-Tyr7, minor

higher amount of enzyme compared to PEP to give similar results (PQPQLPYPQPQLP): 3000 fold
Molecule: bromelain [reference compound]

Molecule: proEPB2: inactive proprotein form of barley endoprotease EPB2
pH optimum of proEPB2 activation and α2-gliadin digestion (α2-gliadin): 2.4-3.5

Molecule: EPB2: cysteine endoprotease from barley (Hordeum vulgare), accession U19384
digestion of purified α2-gliadin (α2-gliadin; acidic conditions, mature form): efficiently digests purified α2-gliadin | time by which mature form undergoes autolysis (α2-gliadin; citrate-phosphate buffer, pH 3): ≤ 72 h

Molecule: elastase: porcine elastase (E-1250, Sigma), pancreatic protease [reference compound]
higher amount of enzyme compared to PEP to give similar results (PQPQLPYPQPQLP): 3000 fold | hydrolysis of PQPQLPYPQPQLPY (PQPQLPYPQPQLPY): capable of hydrolyzing

fragment found [8]: YPQPQPF, first_seen, t=5 min
Molecule: LQLQPFPQPQLPYPQPQLPYPQPQLPYPQPQPF
fragment found [4]: (SEQ ID NO:12, aa 1-19) LQLQPFPQPQLPYPQPQLP, first_seen, t=1 min; also recorded: (SEQ ID NO:12, aa 1-14) LQLQPFPQPQLPYP, first_seen, t=1 min; also recorded: (SEQ ID NO:12, aa 1-12) LQLQPFPQPQLP, first_seen, t=1 min; also recorded: QPQPF, first_seen, t=1 min | not cleaved [9]: stable product of gastric and pancreatic digestion | not cleaved (chymotrypsin): remained intact despite prolonged exposure to proteases

Molecule: trypsin
hydrolysis of PQPQLPYPQPQLPY (PQPQLPYPQPQLPY): No proteolysis was detected

Molecule: chymotrypsin
hydrolysis of PQPQLPYPQPQLPY (PQPQLPYPQPQLPY): No proteolysis was detected

higher amount of enzyme compared to PEP to give similar results (PQPQLPYPQPQLP): 30 fold
B1: papain: papain (P-5306, Sigma) (protein, UniProt P00784 134-345, looked up)
Papain: IPEYVDWRQKGAVTPVKNQGSCGSCWAFSAVVTIEGIIKIRTGNLNEYSEQELLDCDRRSYGCNGGYPWSALQLVAQYGIHYRNTYPYEGVQRYCRSREKGPYAAKTDGVRQVQPYNEGALLYSIANQPVSVVLEAAGKDFQLYRGGIFVGPCGNKVDHAVAAVGYGPNYILIKNSWGTGWGENGYIRIKRGTGNSYGVCGLYTSSFYPVKN
